Measured values taken from PMC4831050 (Journal of natural products, 2016).
≈ marks a conversion by molar mass, not a printed value.

Experiments:
Stability in solution = assay type: physicochemical; conditions: room temperature
[1] = In vitro cytotoxicity, sulforhodamine B; assay type: cell-based; conditions: human
[2] = system: L. donovani promastigotes; assay: In vitro killing of L. donovani promastigotes; assay type: cell-based, Leishmania donovani (strain LV 82); conditions: Leishmania donovani, 72 h, read-out: L. donovani promastigotes IC50
[3] = cited from earlier work
[4] = system: trypanosomal farnesyl diphosphate synthase (FPPS); conditions: cited from earlier work
[5] = system: human farnesyl diphosphate synthase (FPPS); conditions: cited from earlier work
[6] = system: L. donovani promastigotes; conditions: isolated from other plant species; cited from earlier work
[7] = HT-29 colorectal carcinoma cells

SMILES	IC50 [2] [µg/mL]	IC50 at 72 h [1, 7] [µg/mL]	also measured
Cc1ccc2c3c1CCCC(C)(C)C3C(=O)C(C(C)C)=C2 (racemic) [Compound 4, (±)-11-dehydroxymicrostegiol]			stability in solution (Stability in solution): stable in solution at room temperature
CC(C)c1cc2c(c(O)c1O)[C@@]1(C)CCCC(C)(C)C1=C(O)C2=O [Compound 16, 14-deoxycoleon U]	> 20		IC50 at 72 h [1]: 4.4 µg/mL (≈ 13.3 µM)
CC(C)c1cc2c(cc1O)[C@@]1(C)CCCC(C)(C)[C@@H]1[C@@H](O)C2=O [Compound 14, 6α-hydroxysugiol]	7.8 (≈ 24.6 µM)	11.4 (≈ 36 µM)	
CC(C)c1cc2c(cc1O)[C@@]1(C)CCCC(C)(C)[C@@H]1CC2 [Compound 12, ferruginol]	13.1 (≈ 45.7 µM)	11.3 (≈ 39.4 µM)	reported antioxidant and gastroprotective activity [3]: bioavailable antioxidant and gastroprotective agent
CC(C)C1=CC2=CC(=O)[C@H]3C(C)(C)CCC[C@]3(C)C2=C(O)C1=O [Compound 10, taxodione]	0.5 (≈ 1.59 µM)	0.8 (≈ 2.54 µM)	inhibition of trypanosomal farnesyl diphosphate synthase (FPPS) [4]: inhibitor; inhibition of human farnesyl diphosphate synthase (FPPS) [5]: inhibitor; antileishmanial activity against L. donovani promastigotes in vitro [6]: potent antileishmanial agent
COCC(=O)[C@H]1C(C)(C)CCC[C@]1(C)C1=C(O)C(=O)C(C(C)C)=CC1=O [Compound 2, (1′S,2′S)-6-hydroxy-4-isopropyl-2′-(2-methoxyacetyl)-1′,3′,3′-trimethyl-[1,1′-bi(cyclohexane)]-3,6-diene-2,5-dione]	2.5 (≈ 6.9 µM)	1.6 (≈ 4.41 µM)	
